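Method: 48-hour compound exposure of cells in 96-well plates, five concentrations, linear interpolation of endpoints. TGI: total growth inhibition.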
How the values were obtained:
Assay in all cases: NCI anticancer screen, dose series, 48 h
ACHN renal = test system: ACHN renal
MOLT-4 leukemia = test system: MOLT-4 leukemia
SW-620 colon = test system: SW-620 colon
OVCAR-8 ovarian = test system: OVCAR-8 ovarian
SNB-75 CNS = test system: SNB-75 CNS
UO-31 renal = test system: UO-31 renal
A498 renal = test system: A498 renal
HOP-92 NSCLC = test system: HOP-92 NSCLC
DMS 273 small cell lung = test system: DMS 273 small cell lung
DLD-1 colon = test system: DLD-1 colon
TK-10 renal = test system: TK-10 renal
SNB-78 CNS = test system: SNB-78 CNS
NCI-H460 lung = test system: NCI-H460 lung
SF-268 CNS = test system: SF-268 CNS
DMS 114 small cell lung = test system: DMS 114 small cell lung
SN12C renal = test system: SN12C renal
NCI-H23 lung = test system: NCI-H23 lung
HCT-15 colon = test system: HCT-15 colon
IGROV1 ovarian = test system: IGROV1 ovarian
CAKI-1 renal = test system: CAKI-1 renal
SNB-19 CNS = test system: SNB-19 CNS
XF 498 CNS = test system: XF 498 CNS
SK-MEL-2 melanoma = test system: SK-MEL-2 melanoma
LOX IMVI melanoma = test system: LOX IMVI melanoma
EKVX NSCLC = test system: EKVX NSCLC
HCC-2998 colon = test system: HCC-2998 colon
M19-MEL melanoma = test system: M19-MEL melanoma
KM20L2 colon = test system: KM20L2 colon
CCRF-CEM leukemia = test system: CCRF-CEM leukemia
SK-OV-3 ovarian = test system: SK-OV-3 ovarian
HOP-62 NSCLC = test system: HOP-62 NSCLC
U251 CNS = test system: U251 CNS
M14 melanoma = test system: M14 melanoma
786-0 renal = test system: 786-0 renal
OVCAR-3 ovarian = test system: OVCAR-3 ovarian
KM12 colon = test system: KM12 colon
OVCAR-5 ovarian = test system: OVCAR-5 ovarian
UACC-62 melanoma = test system: UACC-62 melanoma
SF-295 CNS = test system: SF-295 CNS
UACC-257 melanoma = test system: UACC-257 melanoma
COLO 205 colon = test system: COLO 205 colon
SF-539 CNS = test system: SF-539 CNS
SR leukemia = test system: SR leukemia
NCI-H226 lung = test system: NCI-H226 lung
HOP-18 NSCLC = test system: HOP-18 NSCLC
K-562 leukemia = test system: K-562 leukemia
HT29 colon = test system: HT29 colon
NCI-H522 lung = test system: NCI-H522 lung
RPMI-8226 leukemia = test system: RPMI-8226 leukemia
HCT-116 colon = test system: HCT-116 colon
OVCAR-4 ovarian = test system: OVCAR-4 ovarian
SK-MEL-5 melanoma = test system: SK-MEL-5 melanoma
HL-60(TB) leukemia = test system: HL-60(TB) leukemia
LXFL 529 NSCLC = test system: LXFL 529 NSCLC
A549 NSCLC = test system: A549 NSCLC
MALME-3M melanoma = test system: MALME-3M melanoma
SK-MEL-28 melanoma = test system: SK-MEL-28 melanoma

With `O=[N+]([O-])c1ccc(-c2ccc(-c3csc(Nc4ccccc4)n3)o2)cc1` the TGI (ACHN renal) was 31.1 µM, the TGI (MOLT-4 leukemia) was 46.2 µM and the TGI (SW-620 colon) was 56.7 µM. The TGI (OVCAR-8 ovarian) was 40.7 µM, the TGI (SNB-75 CNS) was over 56.8 µM and the TGI (UO-31 renal) was 39 µM. It also gave a TGI (A498 renal) of 34.5 µM, a TGI (HOP-92 NSCLC) of 37 µM and a TGI (DMS 273 small cell lung) of 49.4 µM. The TGI (DLD-1 colon) was 65.9 µM, the TGI (TK-10 renal) was 33.3 µM and the TGI (SNB-78 CNS) was 38.4 µM. For the same compound, the TGI (NCI-H460 lung) was over 67 µM, the TGI (SF-268 CNS) was 33.2 µM and the TGI (DMS 114 small cell lung) was 63.5 µM. The TGI (SN12C renal) was 33 µM, the TGI (NCI-H23 lung) was 36.8 µM and the TGI (HCT-15 colon) was 42.5 µM. It also gave a TGI (IGROV1 ovarian) of over 63.9 µM, a TGI (CAKI-1 renal) of 39.5 µM and a TGI (SNB-19 CNS) of over 65.8 µM. For the same compound, the TGI (XF 498 CNS) was 32.4 µM, the TGI (SK-MEL-2 melanoma) was 36.4 µM and the TGI (LOX IMVI melanoma) was 34.8 µM. It also gave a TGI (EKVX NSCLC) of 33.5 µM, a TGI (HCC-2998 colon) of 56.5 µM and a TGI (M19-MEL melanoma) of over 81.6 µM. For the same compound, the TGI (KM20L2 colon) was 44.9 µM, the TGI (CCRF-CEM leukemia) was 16.9 µM and the TGI (SK-OV-3 ovarian) was over 100 µM. For the same compound, the TGI (HOP-62 NSCLC) was over 100 µM, the TGI (U251 CNS) was 41.5 µM and the TGI (M14 melanoma) was 38 µM. For the same compound, the TGI (786-0 renal) was 30.9 µM, the TGI (OVCAR-3 ovarian) was 33.7 µM and the TGI (KM12 colon) was 38.3 µM. For the same compound, the TGI (OVCAR-5 ovarian) was 31.6 µM, the TGI (UACC-62 melanoma) was 37.2 µM and the TGI (SF-295 CNS) was over 86.4 µM. For the same compound, the TGI (UACC-257 melanoma) was 33.3 µM, the TGI (COLO 205 colon) was 58.2 µM and the TGI (SF-539 CNS) was 33.9 µM. It also gave a TGI (SR leukemia) of 4.76 µM, a TGI (NCI-H226 lung) of over 84.1 µM and a TGI (HOP-18 NSCLC) of 29.4 µM. It also gave a TGI (K-562 leukemia) of 32.1 µM, a TGI (HT29 colon) of 49.7 µM and a TGI (NCI-H522 lung) of 32 µM. It also gave a TGI (RPMI-8226 leukemia) of over 67.4 µM, a TGI (HCT-116 colon) of 47 µM and a TGI (OVCAR-4 ovarian) of 32 µM. The TGI (SK-MEL-5 melanoma) was 40.1 µM, the TGI (HL-60(TB) leukemia) was 13.5 µM and the TGI (LXFL 529 NSCLC) was 32.9 µM. The TGI (A549 NSCLC) was over 100 µM, the TGI (MALME-3M melanoma) was 32.1 µM and the TGI (SK-MEL-28 melanoma) was 32.2 µM.
